Data taken from patent publication US12077537B2 (Gilead Sciences, Inc., priority 2020, dated 2024).

tested on: HIV-IIIb; assay: Antiviral assay in MT4 cells; assay type: cell-based; conditions: Human immunodeficiency virus 1, MT4, 120 h; MT-4 cells mixed with HIV-IIIb at m.o.i. 0.003; 5 days at 37° C.; CellTiter-Glo luminescence; 50% decrease in signal, a measure of HIV-1 replication
How it was run: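 Compound, tested at ten 3-fold dilutions in quadruplicate in 10% FBS medium, received MT-4 cells pre-mixed 1 hour with HIV-IIIb (m.o.i. 0.003). Protection was read as luminescent cell viability (CellTiter-Glo) after 5 days' culture at 37° C.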

Cn1nc(N)c2cccc(-c3cc4sc(NCC(C)(C)O)nc4nc3[C@H](Cc3cc(F)cc(F)c3)NC(=O)Cn3nc(C(F)(F)F)c4c3C(F)(F)[C@@H]3C[C@H]43)c21 [Compound 51, N—((S)-1-(6-(3-amino-1-methyl-1H-indazol-7-yl)-2-((2-hydroxy-2-methylpropyl)amino)thiazolo[4,5-b]pyridin-5-yl)-2-(3,5-difluorophenyl)ethyl)-2-((3bS,4aR)-5,5-difluoro-3-(trifluoromethyl)-3b,4,4a,5-tetrahydro-1H-cyclopropa[3,4]cyclopenta[1,2-c]pyrazol-1-yl)acetamide] and Cn1nc(NS(C)(=O)=O)c2cccc(-c3cc4sc(O)nc4nc3[C@H](Cc3cc(F)cc(F)c3)NC(=O)Cn3nc(C(F)(F)F)c4c3C(F)(F)[C@@H]3C[C@H]43)c21 [Example 113, 2-((3bS,4aR)-5,5-difluoro-3-(trifluoromethyl)-3b,4,4a,5-tetrahydro-1H-cyclopropa[3,4]cyclopenta[1,2-c]pyrazol-1-yl)-N—((S)-2-(3,5-difluorophenyl)-1-(2-hydroxy-6-(1-methyl-3-(methylsulfonamido)-1H-indazol-7-yl)thiazolo[4,5-b]pyridin-5-yl)ethyl)acetamide] are within 1.5-fold of each other in EC50: 9.7 nM for the first, 8.1 nM for the second.

First: NC(=O)c1cc(-c2nc3nc(C(Cc4cc(F)cc(F)c4)NC(=O)Cn4nc(C(F)(F)F)c5c4C(F)(F)[C@@H]4C[C@H]54)c(-c4ccc(F)c(C(N)=O)c4)cc3s2)ccc1F (stereo partly drawn) [Example 117, 5,5′-(5-(1-(2-((3bS,4aR)-5,5-difluoro-3-(trifluoromethyl)-3b,4,4a,5-tetrahydro-1H-cyclopropa[3,4]cyclopenta[1,2-c]pyrazol-1-yl)acetamido)-2-(3,5-difluorophenyl)ethyl)thiazolo[4,5-b]pyridine-2,6-diyl)bis(2-fluorobenzamide)]
Second: NC(=O)c1cc(-c2cc3sc(N4CCN(C5COC5)CC4)nc3nc2[C@H](Cc2cc(F)cc(F)c2)NC(=O)Cn2nc(C(F)(F)F)c3c2C(F)(F)[C@@H]2C[C@H]32)ccc1F [Compound 24, 5-(5-((S)-1-(2-((3bS,4aR)-5,5-difluoro-3-(trifluoromethyl)-3b,4,4a,5-tetrahydro-1H-cyclopropa[3,4]cyclopenta[1,2-c]pyrazol-1-yl)acetamido)-2-(3,5-difluorophenyl)ethyl)-2-(4-(oxetan-3-yl)piperazin-1-yl)thiazolo[4,5-b]pyridin-6-yl)-2-fluorobenzamide]
The EC50 of the first is 2.9-fold higher: 93.5 nM for the first, 32.7 nM for the second.

Compared with Cn1nc(NS(C)(=O)=O)c2cccc(-c3cc4sc(N5CCC5C(N)=O)nc4nc3[C@H](Cc3cc(F)cc(F)c3)NC(=O)Cn3nc(C(F)(F)F)c4c3C(F)(F)[C@@H]3C[C@H]43)c21 (stereo partly drawn) [Example 74, 1-(5-((S)-1-(2-((3bS,4aR)-5,5-difluoro-3-(trifluoromethyl)-3b,4,4a,5-tetrahydro-1H-cyclopropa[3,4]cyclopenta[1,2-c]pyrazol-1-yl)acetamido)-2-(3,5-difluorophenyl)ethyl)-6-(1-methyl-3-(methylsulfonamido)-1H-indazol-7-yl)thiazolo[4,5-b]pyridin-2-yl)azetidine-2-carboxamide], Cc1nc2nc(C(Cc3cc(F)cc(F)c3)NC(=O)Cn3nc(C(F)(F)F)c4c3C(F)(F)[C@@H]3C[C@H]43)c(-c3cccc4c(NS(C)(=O)=O)nn(C)c34)cc2s1 (stereo partly drawn) [Compound 130, 2-((3bS,4aR)-5,5-difluoro-3-(trifluoromethyl)-3b,4,4a,5-tetrahydro-1H-cyclopropa[3,4]cyclopenta[1,2-c]pyrazol-1-yl)-N-(2-(3,5-difluorophenyl)-1-(2-methyl-6-(1-methyl-3-(methylsulfonamido)-1H-indazol-7-yl)thiazolo[4,5-b]pyridin-5-yl)ethyl)acetamide] is 9.5-fold lower in EC50: 57.3 nM for the first, 6 nM for the second.

Cn1nc(NS(C)(=O)=O)c2cccc(-c3cc4sc(N5CCC(C)(O)CC5)nc4nc3C(Cc3cc(F)cc(F)c3)NC(=O)Cn3nc(C(F)(F)F)c4c3C(F)(F)[C@@H]3C[C@H]43)c21 (stereo partly drawn) [Example 124, 2-((3bS,4aR)-5,5-difluoro-3-(trifluoromethyl)-3b,4,4a,5-tetrahydro-1H-cyclopropa[3,4]cyclopenta[1,2-c]pyrazol-1-yl)-N-(2-(3,5-difluorophenyl)-1-(2-(4-hydroxy-4-methylpiperidin-1-yl)-6-(1-methyl-3-(methylsulfonamido)-1H-indazol-7-yl)thiazolo[4,5-b]pyridin-5-yl)ethyl)acetamide] and Cn1nc(NS(C)(=O)=O)c2cccc(-c3cc4sc(N5CC6(COC6)C5)nc4nc3[C@H](Cc3cc(F)cc(F)c3)NC(=O)Cn3nc(C(F)(F)F)c4c3C(F)(F)[C@@H]3C[C@H]43)c21 [Example 77, 2-((3bS,4aR)-5,5-difluoro-3-(trifluoromethyl)-3b,4,4a,5-tetrahydro-1H-cyclopropa[3,4]cyclopenta[1,2-c]pyrazol-1-yl)-N—((S)-2-(3,5-difluorophenyl)-1-(6-(1-methyl-3-(methylsulfonamido)-1H-indazol-7-yl)-2-(2-oxa-6-azaspiro[3.3]heptan-6-yl)thiazolo[4,5-b]pyridin-5-yl)ethyl)acetamide] are within 1.5-fold of each other in EC50: 13.6 nM for the first, 15.8 nM for the second.

Going from Cn1nc(NS(C)(=O)=O)c2cccc(-c3cc4sc(-c5c[nH]cn5)nc4nc3C(Cc3cc(F)cc(F)c3)NC(=O)Cn3nc(C(F)(F)F)c4c3C(F)(F)[C@@H]3C[C@H]43)c21 (stereo partly drawn) [Compound 133, N-(1-(2-(1H-imidazol-4-yl)-6-(1-methyl-3-(methylsulfonamido)-1H-indazol-7-yl)thiazolo[4,5-b]pyridin-5-yl)-2-(3,5-difluorophenyl)ethyl)-2-((3bS,4aR)-5,5-difluoro-3-(trifluoromethyl)-3b,4,4a,5-tetrahydro-1H-cyclopropa[3,4]cyclopenta[1,2-c]pyrazol-1-yl)acetamide] to Cn1cc(-c2nc3nc([C@H](Cc4cc(F)cc(F)c4)NC(=O)Cn4nc(C(F)F)c5c4C(F)(F)[C@@H]4C[C@H]54)c(-c4ccc(Cl)c5c(NS(C)(=O)=O)nn(C)c45)cc3[nH]2)cn1 [Example 98, N—((S)-1-(6-(4-chloro-1-methyl-3-(methylsulfonamido)-1H-indazol-7-yl)-2-(1-methyl-1H-pyrazol-4-yl)-1H-imidazo[4,5-b]pyridin-5-yl)-2-(3,5-difluorophenyl)ethyl)-2-((3bS,4aR)-3-(difluoromethyl)-5,5-difluoro-3b,4,4a,5-tetrahydro-1H-cyclopropa[3,4]cyclopenta[1,2-c]pyrazol-1-yl)acetamide], the EC50 falls from 43.3 nM to 3 nM (14-fold).

Going from N#Cc1cc(-c2cc3sc(N4CCOCC4)nc3nc2[C@H](Cc2cc(F)cc(F)c2)NC(=O)Cn2nc(C(F)F)c3c2C(F)(F)CCC3(F)F)ccc1F [Example 3K, (S)—N-(1-(6-(3-cyano-4-fluorophenyl)-2-morpholinothiazolo[4,5-b]pyridin-5-yl)-2-(3,5-difluorophenyl)ethyl)-2-(3-(difluoromethyl)-4,4,7,7-tetrafluoro-4,5,6,7-tetrahydro-1H-indazol-1-yl)acetamide] to O=C(Cn1nc(C(F)(F)F)c2c1C(F)(F)[C@@H]1C[C@H]21)N[C@@H](Cc1cc(F)cc(F)c1)c1nc2nc(N3CCN(c4ccncc4)CC3)sc2cc1-c1ccc2c(c1)C(=O)NC21CC1 [Compound 42, 2-((3bS,4aR)-5,5-difluoro-3-(trifluoromethyl)-3b,4,4a,5-tetrahydro-1H-cyclopropa[3,4]cyclopenta[1,2-c]pyrazol-1-yl)-N—((S)-2-(3,5-difluorophenyl)-1-(6-(3′-oxospiro[cyclopropane-1,1′-isoindolin]-5′-yl)-2-(4-(pyridin-4-yl)piperazin-1-yl)thiazolo[4,5-b]pyridin-5-yl)ethyl)acetamide], the EC50 falls from 1800 nM to 87.2 nM (21-fold).
